Assay results as given in PubChem BioAssay AID2060620 (Molecular Pharmacology Branch, DTP, NCI, 2025).
“And” between values parts separate entries of the source, which are not always exact repeats. Equal entries are not always repeated.

Tested on: 328373-195-R-J1-PDC complex spheroids, viability % test/control
Assay: Anticancer human tumor 328373-195-R-J1-PDC patient-derived head and neck squamous carcinoma cell line growth inhibition [CLK]
Details: for viability, T/C: stronger effect = lower value; active means viability on the fitted dose curve at most 10% of control; inactive means the rest
Source text: A high-throughput screen of multi-cell type tumor spheroids was designed to identify active combinations of […] and targeted small molecules. Complex spheroids include a stromal component modeled by human endothelial cells (HUVEC) and fibroblasts modeled by human mesenchymal stem cells (MSCs). The concentration ranges selected for each drug and investigational agent were based upon clinically achievable concentrations if the clinical Cmax of the agent was known.
Compounds. The drugs and investigational agents: cirtuvivint (SM08502; NSC835563), CC-671 (NSC850746), vemurafenib (NSC761431), tapotoclax (NSC804041), sotorasib (NSC818433), adagrasib (NSC831453), MRTX-1133 (NSC836407), BAY2416964 (NSC825713), copanlisib (NSC816437), inavolisib (NSC800729), abemaciclib (NSC768073), osimertinib (NSC779217), entinostat (NSC756642), eltanexor (KPT-8602, NSC794443), venetoclax (NSC766270), ceralasertib (NSC777638), bortezomib (NSC756655), olaparib (NSC753686), talazoparib (NSC767125), alisertib (NSC759677), peposertib (NSC802822), gemcitabine (NSC613327), 5-fluorouracil (NSC19893), SN-38 (NSC673596), oxaliplatin (NSC266046), paclitaxel (NSC125973), and doxorubicin (NSC123127), were obtained from the National Cancer Institute (NCI) Developmental Therapeutics Program Chemical Repository. The FDA-approved anticancer drug set is available from the Developmental Therapeutics Program at https://dtp.cancer.gov/organization/dscb/obtaining/available plates.htm. […] The stock solutions were prepared in dimethyl sulfoxide (DMSO, Sigma-Aldrich, St. Louis, MO, cat. D2650), except for the platinum complexes which were prepared in saline (Quality Biological, Gaithersburg, MD, cat. 114-055-101), at 800-fold the tested concentration and stored at -70 degrees C prior to their use. All drugs and investigational agents were tested over a range starting from a high concentration at or near the clinical Cmax and decreasing in half-log increments. If the clinical Cmax for an agent had not been determined, the highest concentration tested was 10 microM.
Cell Culture. All cells were maintained in an incubator at 37 degrees C and 5% CO2 with 95% humidity. The PDC lines were cultured according to standard operating procedures established by the NCI PDMR. Briefly, all PDCs were thawed and cultured in Matrigel-coated flasks prepared with a working solution of 1X Ham's F-12 nutrient mix, without supplementation (Invitrogen, Waltham, MA, cat. 11765054), 100 U/mL penicillin-streptomycin (Invitrogen, cat. 15140122), and 2.5% Matrigel (Corning Inc., Corning, NY, cat. 354248) for the first three passages. The 947758-054-R-J2-PDC line was cultured in 6B/Colon 1A media, which includes advanced DMEM/F-12 (Thermo Fisher Scientific, cat. 12634028), 10 mM HEPES (Thermo Fisher Scientific, cat. 15630080), 1X GlutaMAX supplement (Thermo Fisher Scientific, cat. 35050061), 0.1 mg/mL primocin (InvivoGen, cat. ant-pm-2), 10% defined fetal bovine serum, heat inactivated (HyClone Laboratories Inc., cat. SH30070.03HI), 1.25 mM N-Acetyl-L-cysteine (Sigma-Aldrich, cat. A9165), 10 mM nicotinamide (Sigma-Aldrich, cat. N0636), 1X B-27 supplement (Thermo Fisher Scientific, cat. 17504044), 1X N-2 supplement (Thermo Fisher Scientific, cat. 17502048), and 10 microM Y-27632 dihydrochloride (Tocris Bioscience, cat. 1254). The 876862-298-R-J1-PDC was cultured in 6E media, which includes all 6B/Colon 1A media components plus 50% L-WRN conditioned media (ATCC, cat. CRL-3276), 50 ng/mL recombinant human EGF recombinant protein (hEGF; Thermo Fisher Scientific, cat. PHG0311), 10 ng/mL recombinant human fibroblast growth factor 10 (hGFG-10; PeproTech, cat. 100-26), 1 ng/mL recombinant human fibroblast growth factor 2 (hFGF-2; PeproTech, cat. 100-18B), and 1 µM prostaglandin E2 (PGE2; Tocris, cat. 2296). The 227483-062-R1-J1-PDC line was cultured in Panc media, containing all 6E components except hFGF-2, with the addition of 500 nM SB-431542 (Selleckchem, cat. S1067) and 10 nM gastrin (Tocris, cat. 3006). […]
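Further: spheroids exposed to the agents for 7 days.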

Nc1ccn(C2OC(CO)C(O)C2(F)F)c(=O)n1 (stereo not drawn)
< 31.6 nM: IC50 (curve of compound)
active: viability, T/C (compound 0.0316 µM) 4.83% and 1.9% | viability, T/C (compound 0.1 µM) 2.69% and 2.98% | viability, T/C (compound 0.316 µM) 2.89% and 2.37% | viability, T/C (compound 1 µM) 2.8% and 3.02% | viability, T/C (compound 3.16 µM) 2.26% and 2.69% | viability, T/C (compound 10 µM) 2.3% and 1.66%

O=C(c1cc(Cc2n[nH]c(=O)c3ccccc23)ccc1F)N1CCN(C(=O)C2CC2)CC1
inactive: viability, T/C (compound 0.0316 µM) 99.6% and 98.6% | viability, T/C (compound 0.1 µM) 94.2% and 88% | viability, T/C (compound 0.316 µM) 91.3% and 90.8% | viability, T/C (compound 1 µM) 87.9% and 100% | viability, T/C (compound 3.16 µM) 93.2% and 101% | viability, T/C (compound 10 µM) 73.2% and 66.8%
> 10000 nM: IC50 (curve of compound)

O=c1[nH]cc(F)c(=O)[nH]1
35.6 nM and 44.9 nM: IC50 (curve of compound)
inactive: viability, T/C (compound 0.0316 µM) 54% and 64.5% | viability, T/C (compound 0.1 µM) 14.5% and 17.4% | viability, T/C (compound 0.316 µM) 11.9% and 9.36% | viability, T/C (compound 1 µM) 6.67% and 7.09% | viability, T/C (compound 3.16 µM) 8.84% and 8.77% | viability, T/C (compound 10 µM) 14.9% and 15.6%

CCCS(=O)(=O)Nc1ccc(F)c(C(=O)c2c[nH]c3ncc(-c4ccc(Cl)cc4)cc23)c1F + CN1CCN(c2cc(C(=O)Nc3cc4cc(-c5cnn(C)c5)ccc4cn3)ccn2)CC1
< 31.6 nM: IC50 (curve of first compound, second compound 0.316 µM) | IC50 (curve of first compound, second compound 1 µM) | IC50 (curve of first compound, second compound 3.16 µM) | IC50 (curve of first compound, second compound 10 µM)
inactive: viability, T/C (second compound 0.0316 µM, first compound 0.0316 µM) 102% | viability, T/C (second compound 0.0316 µM, first compound 0.1 µM) 91.4% | viability, T/C (second compound 0.0316 µM, first compound 0.316 µM) 109% | viability, T/C (second compound 0.0316 µM, first compound 1 µM) 100% | viability, T/C (second compound 0.0316 µM, first compound 3.16 µM) 101% | viability, T/C (second compound 0.0316 µM, first compound 10 µM) 81.6% | viability, T/C (second compound 0.1 µM, first compound 0.0316 µM) 78.8% | viability, T/C (second compound 0.1 µM, first compound 0.1 µM) 82.2% | viability, T/C (second compound 0.1 µM, first compound 0.316 µM) 83.7% | viability, T/C (second compound 0.1 µM, first compound 1 µM) 86.6% | viability, T/C (second compound 0.1 µM, first compound 3.16 µM) 96.5% | viability, T/C (second compound 0.1 µM, first compound 10 µM) 81.7% | viability, T/C (second compound 0.316 µM, first compound 0.0316 µM) 35.8% | viability, T/C (second compound 0.316 µM, first compound 0.1 µM) 38.5% | viability, T/C (second compound 0.316 µM, first compound 0.316 µM) 34.8% | viability, T/C (second compound 0.316 µM, first compound 1 µM) 40% | viability, T/C (second compound 0.316 µM, first compound 3.16 µM) 34.7% | viability, T/C (second compound 0.316 µM, first compound 10 µM) 28.9%
> 10000 nM: IC50 (curve of first compound, second compound 0.0316 µM) | IC50 (curve of first compound, second compound 0.1 µM)
active: viability, T/C (second compound 1 µM, first compound 0.0316 µM) 2.19% | viability, T/C (second compound 1 µM, first compound 0.1 µM) 1.09% | viability, T/C (second compound 1 µM, first compound 0.316 µM) 2.63% | viability, T/C (second compound 1 µM, first compound 1 µM) 2.9% | viability, T/C (second compound 1 µM, first compound 3.16 µM) 1.71% | viability, T/C (second compound 1 µM, first compound 10 µM) 0.31% | viability, T/C (second compound 3.16 µM, first compound 0.0316 µM) 0.65% | viability, T/C (second compound 3.16 µM, first compound 0.1 µM) 1.41% | viability, T/C (second compound 3.16 µM, first compound 0.316 µM) 2.96% | viability, T/C (second compound 3.16 µM, first compound 1 µM) 1.01% | viability, T/C (second compound 3.16 µM, first compound 3.16 µM) 1.06% | viability, T/C (second compound 3.16 µM, first compound 10 µM) 0.14% | viability, T/C (second compound 10 µM, first compound 0.0316 µM) 1.51% | viability, T/C (second compound 10 µM, first compound 0.1 µM) 3.41% | viability, T/C (second compound 10 µM, first compound 0.316 µM) 0.81% | viability, T/C (second compound 10 µM, first compound 1 µM) 2.54% | viability, T/C (second compound 10 µM, first compound 3.16 µM) 2.37% | viability, T/C (second compound 10 µM, first compound 10 µM) 0.63%
